Assay: Fatigue feeling mitigation test, VAS questionnaire after Aerobike exercise loading (Example 2)
Type: in vivo, human
Procedure: As test subjects, 21 healthy males at the ages of 20 to 49 who have exercise habits of conducting exercise with an intensity of 5 METs or more for 30 minutes or more once or twice a week and who can continue the exercise habits during the test period as well were selected.
Among the 21 test subjects, 10 test subjects were selected as an α-cyclodextrin (αCD) intake group, and the remaining 11 test subjects were selected as a placebo group. The test subjects themselves were not informed who belonged to which group.
Test Supplements (tablets) having compositions described in Table 1 below were used. One tablet of the test supplements was of about 250 mg.
Each test subject of the αCD intake group and the placebo group was asked to take in 3 tablets of the above test supplements once a day at any timing. That is, each test subject of the α-cyclodextrin intake group was asked to take in about 200 mg of α-cyclodextrin per day.
The intake period for the test supplements was set to 9 weeks, and change in gut flora was evaluated, a questionnaire on fatigue feeling was conducted, and change in travel time was evaluated, before the start of the intake, after 4-week intake, and after 8-week intake. Note that foods and beverages that are said to support sports and training, pharmaceutical products and quasi-pharmaceutical products that have recovery, prevention or amelioration of “fatigue”, “tiredness”, “physical strength” and/or “lassitude” as the indication and effects, as well as supplements in general (also including foods with functional claims and foods for specified health use) were prohibited to take in for 1 week counted from the date when the test subjects agreed to participate in the test and during the test period.
The test subjects were subjected to exercise loading (load intensity: at an intensity of 45% of the maximum exercise loading intensity of each test subject for 50 minutes) using Aerobike (trade mark) (manufactured by KONAMI Sports & Life Col., Ltd., model number AEROBIKE-75XLIII), before intake of the test supplements, after 4-week intake, and after 8-week intake. […] Regarding fatigue, a VAS (Visual Analogue Scale) questionnaire was conducted based on the VAS testing method for fatigue feeling established by Japanese Society of Fatigue Science, immediately after loading, 30 minutes after loading, and 60 minutes after loading, to investigate change in fatigue feeling with time. The items of the questionnaire were “general fatigue feeling”, “fatigue feeling of the legs”, “tension of the legs”, “general lassitude”, and “difficulty in breathing”, and the “best state (0 mm)” and the “worst state (100 mm)” in each item were based on criteria shown in Table 2. In each intake group, the amounts of change in measured value were evaluated after 4-week intake and after 8-week intake based on the measured value before intake. […] The significant test between the placebo group and the α-cyclodextrin (αCD) intake group for the general fatigue feeling was conducted by Student's t-test, and the result of the test was summarized as a graph in FIG. 2 (*: p<0.05). In addition, the results for the items “fatigue feeling of the legs”, “tension of the legs”, “general lassitude”, and “difficulty in breathing” were summarized in Table 3. In Table 3, the significant difference was studied by paired t-test for a comparison with before intake of αCD, and the significant test between the placebo group and the α-cyclodextrin (αCD) intake group was conducted by Student's t-test.

[1] = 30 minutes after exercise, after 4-week intake, about 200 mg/day
[2] = 30 minutes after exercise, after 8-week intake, about 200 mg/day
[3] = 30 minutes after exercise, before intake
[4] = 60 minutes after exercise, after 4-week intake, about 200 mg/day
[5] = 60 minutes after exercise, after 8-week intake, about 200 mg/day
[6] = 60 minutes after exercise, before intake
[7] = immediately after exercise, after 4-week intake, about 200 mg/day
[8] = immediately after exercise, after 8-week intake, about 200 mg/day
[9] = immediately after exercise, before intake

OC[C@H]1O[C@@H]2O[C@H]3[C@H](O)[C@@H](O)[C@@H](O[C@H]4[C@H](O)[C@@H](O)[C@@H](O[C@H]5[C@H](O)[C@@H](O)[C@@H](O[C@H]6[C@H](O)[C@@H](O)[C@@H](O[C@H]7[C@H](O)[C@@H](O)[C@@H](O[C@H]1[C@H](O)[C@H]2O)O[C@@H]7CO)O[C@@H]6CO)O[C@@H]5CO)O[C@@H]4CO)O[C@@H]3CO [α-cyclodextrin]
VAS Difficulty in breathing [1]: 17.727 ± 15.300 mm | VAS Fatigue feeling of the legs [1]: 38.002 ± 21.474 mm | VAS General lassitude [1]: 27.436 ± 16.724 * mm | VAS Tension of the legs [1]: 38.015 ± 21.098 mm | VAS Difficulty in breathing [2]: 16.498 ± 18.581 * mm | VAS Fatigue feeling of the legs [2]: 28.636 ± 21.115 ** mm | VAS General lassitude [2]: 24.728 ± 21.853 * mm | VAS Tension of the legs [2]: 26.662 ± 21.491 ** mm | VAS Difficulty in breathing [3]: 22.702 ± 23.028 mm | VAS Fatigue feeling of the legs [3]: 42.045 ± 25.730 mm | VAS General lassitude [3]: 39.689 ± 21.542 mm | VAS Tension of the legs [3]: 41.674 ± 26.128 mm | VAS Difficulty in breathing [4]: 16.907 ± 16.405 mm | VAS Fatigue feeling of the legs [4]: 31.167 ± 20.034 mm | VAS General lassitude [4]: 20.932 ± 16.099 mm | VAS Tension of the legs [4]: 29.904 ± 19.297 mm | VAS Difficulty in breathing [5]: 12.228 ± 15.335 mm | VAS Fatigue feeling of the legs [5]: 22.603 ± 21.310 * mm | VAS General lassitude [5]: 17.754 ± 19.279 * mm | VAS Tension of the legs [5]: 22.193 ± 22.240 mm | VAS Difficulty in breathing [6]: 16.882 ± 18.668 mm | VAS Fatigue feeling of the legs [6]: 34.945 ± 26.504 mm | VAS General lassitude [6]: 30.096 ± 20.702 mm | VAS Tension of the legs [6]: 33.394 ± 26.250 mm | general fatigue feeling after the exercise (VAS), change vs before intake, compared with placebo group (about 200 mg/day, after 4-week and 8-week intake, p<0.05): significantly decreased | VAS Difficulty in breathing [7]: 30.597 ± 21.390 * mm | VAS Fatigue feeling of the legs [7]: 60.911 ± 21.493 mm | VAS General lassitude [7]: 41.464 ± 17.587 mm | VAS Tension of the legs [7]: 58.542 ± 25.137 mm | VAS Difficulty in breathing [8]: 29.033 ± 20.173 ** mm | VAS Fatigue feeling of the legs [8]: 54.009 ± 23.092 mm | VAS General lassitude [8]: 39.053 ± 21.314 * mm | VAS Tension of the legs [8]: 55.137 ± 24.253 mm | VAS Difficulty in breathing [9]: 44.516 ± 19.027 mm | VAS Fatigue feeling of the legs [9]: 53.304 ± 25.421 mm | VAS General lassitude [9]: 51.306 ± 20.273 mm | VAS Tension of the legs [9]: 59.341 ± 24.644 mm
